Reference: US9562899B2, “Method of detecting OXA-048 carbapenemase producing bacteria” (BIOMÉRIEUX, priority 2012, dated 2017)
Where two headings read alike, the source gives them in different places.

Experiments:
KPC strains = assay: Temocillin MIC, agar dilution (Example 1); format: cell-based, Enterobacteriaceae; conditions: Ex 1; temocillin alone; MIC in mg/l
Experimental: (§1) Determination of the MICs with Respect to Temocillin for a Panel of CPE Strains (Using the Agar Dilution Method)
(§2) Reaction medium: the base is a chromLD™ CPS medium (bioMérieux, ref. 43821-43829), comprising a chromogenic substrate for beta-glucuronidase, a chromogenic substrate for beta-glucosidase, a chromogenic substrate for beta-galactosidase and a substrate for deaminase. Temocillin is added to this base medium at the concentrations indicated hereinafter.
(§3) Temocillin range tested: 50-150-200-300 mg/l (disodium temocillin, Eumedica SA, Manage, Belgium).
(§4) The media are inoculated by depositing a spot: 1 μl of a microbial suspension in physiological saline at 0.5 McF, diluted to 1/10.
(§5) Incubation for 24 h at 37° C.
(§6) Reading after incubation for 24 hours. The medium with the smallest temocillin concentration on which a negative growth spot is obtained will be retained as the MIC. The spots having only 3 colonies or less or a total absence of growth were considered to be negative.

IMP strains = assay: Temocillin MIC, agar dilution (Example 1); format: cell-based, Enterobacteriaceae; conditions: Ex 1; temocillin alone; MIC in mg/l
Experimental: as §1, §2, §3, §4, §5, §6

BLSE strains = assay: Temocillin MIC, agar dilution (Example 1); format: cell-based, Enterobacteriaceae; conditions: Ex 1; temocillin alone; MIC in mg/l
Experimental: as §1, §2, §3, §4, §5, §6

AmpC strains = assay: Temocillin MIC, agar dilution (Example 1); format: cell-based, Enterobacteriaceae; conditions: Ex 1; temocillin alone; MIC in mg/l
Experimental: as §1, §2, §3, §4, §5, §6

Non-OXA-48 strains [1] = assay: Temocillin MIC, agar dilution (Example 1); format: cell-based, Enterobacteriaceae
Experimental: as §1, §2, §3, §4, §5, §6

Non-OXA-48 strains [2] = assay: Prototype medium, strains detected (Example 3); format: cell-based, Enterobacteriaceae; conditions: Non-OXA-48 deposit of 10^6 CFU; temocillin 300 mg/l; 24 hours
Experimental: (§7) The media are prepared in 55 mm diameter Petri dishes. They are inoculated using a bacterial suspension in physiological saline at 0.5 McF for the non-OXA-48 strains and with a 1/100 and 1/10 000 dilution of a suspension at 0.5 McF for the OXA-48 strains. The inoculation consists of 3-quadrant streaking using a 10 μl calibrated loop: theoretical deposit of 10^4 or 10^2 CFU for the OXA-48 strains and of 10^6 CFU for the strains not producing OXA-48.
(§8) The media are incubated at 37° C. The readings will be carried out after 18 and 24 hours of incubation.
(§9) The growth density, the colony sizes and also the coloration (color and strength) are evaluated.
(§10) Reaction medium identical to the base used for example 1. A selective system comprising a mixture of antibiotics and antifungals which is specific for Gram-positives, yeasts and Gram-negatives which are non-fermenting, and also cloxacillin and EDTA, is also added.
(§11) A medium at 200 mg/l of temocillin is tested without selective system as indicated above.

OXA-48 strains = assay: Prototype medium, strains detected (Example 3); format: cell-based, Enterobacteriaceae; conditions: 24 hours of incubation
Experimental: as §7, §8, §9, §10, §11

[3] = tested on: strains with a metallo-carbapenemase; conditions: Livermore et al.; cited from earlier work
VIM strains = format: cell-based, Enterobacteriaceae; conditions: Ex 2, MIC in mg/l
Description: (§12) Optimization of the Detection Specificity by Introducing Specific Inhibitors Inhibition of Class B Strains (NDM, VIM, IMP) by Adding EDTA
(§13) Identical to that used to determine the temocillin MICs by agar dilution (example 1).
(§14) For each temocillin concentration, the following concentrations of active EDTA will be tested in the form of disodium EDTA: 0, 1.77, 2.12, 2.47 and 2.83 mmol/l.
(§15) Method: identical to the method used in example 1.

NDM-1 strains = format: cell-based, Enterobacteriaceae; conditions: Ex 2, MIC in mg/l
Description: as §12, §13, §14, §15

[4] = tested on: KPC, AmpC and MBL strains; conditions: disk comprising 30 μg of temocillin; Rosco; cited from earlier work

CO[C@@]1(NC(=O)C(C(=O)O)c2ccsc2)C(=O)N2[C@@H](C(=O)O)C(C)(C)S[C@@H]21 (stereo partly drawn) [temocillin]
No. of KPC strains with MIC 150 (KPC strains): 1 | No. of KPC strains with MIC 200 (KPC strains): 0 | No. of KPC strains with MIC 300 (KPC strains): 0 | No. of KPC strains with MIC >300 (KPC strains): 3 | No. of KPC strains with MIC ≦50 (KPC strains): 8 | No. of IMP strains with MIC 150 (IMP strains): 0 | No. of IMP strains with MIC 200 (IMP strains): 0 | No. of IMP strains with MIC 300 (IMP strains): 0 | No. of IMP strains with MIC >300 (IMP strains): 1 | No. of IMP strains with MIC ≦50 (IMP strains): 12 | No. of BLSE strains with MIC 150 (BLSE strains): 0 | No. of BLSE strains with MIC 200 (BLSE strains): 0 | No. of BLSE strains with MIC 300 (BLSE strains): 0 | No. of BLSE strains with MIC >300 (BLSE strains): 2 | No. of BLSE strains with MIC ≦50 (BLSE strains): 8 | No. of AmpC strains with MIC 150 (AmpC strains): 0 | No. of AmpC strains with MIC 200 (AmpC strains): 0 | No. of AmpC strains with MIC 300 (AmpC strains): 0 | No. of AmpC strains with MIC >300 (AmpC strains): 0 | No. of AmpC strains with MIC ≦50 (AmpC strains): 10 | MIC (Non-OXA-48 strains [1]; most of the non-OXA-48 strains): ≤ 200 µg/mL | MIC (Non-OXA-48 strains [1]; only a few non-OXA-48 strains): > 300 µg/mL | No. of strains detected (Non-OXA-48 strains [2]): 1/13 | No. of strains detected (OXA-48 strains; OXA-48 deposit of 10^2 CFU, temocillin 200 mg/l without selective system): 15/15 | No. of strains detected (OXA-48 strains; OXA-48 deposit of 10^2 CFU, temocillin 200 mg/l): 15/15 | No. of strains detected (OXA-48 strains; OXA-48 deposit of 10^2 CFU, temocillin 300 mg/l): 15/15 | No. of strains detected (OXA-48 strains; OXA-48 deposit of 10^2 CFU, temocillin 500 mg/l): 9/15 | No. of strains detected (OXA-48 strains; OXA-48 deposit of 10^4 CFU, temocillin 200 mg/l without selective system): 15/15 | No. of strains detected (OXA-48 strains; OXA-48 deposit of 10^4 CFU, temocillin 200 mg/l): 15/15 | No. of strains detected (OXA-48 strains; OXA-48 deposit of 10^4 CFU, temocillin 300 mg/l): 15/15 | No. of strains detected (OXA-48 strains; OXA-48 deposit of 10^4 CFU, temocillin 400 mg/l): 15/15 | No. of strains detected (OXA-48 strains; OXA-48 deposit of 10^4 CFU, temocillin 500 mg/l): 12/15 | strains resistant to temocillin [3]: 32/35 | No. of VIM strains with MIC 150 (VIM strains; 0 mmol/l of EDTA): 6 | No. of VIM strains with MIC 200 (VIM strains; 0 mmol/l of EDTA): 1 | No. of VIM strains with MIC 300 (VIM strains; 0 mmol/l of EDTA): 0 | No. of VIM strains with MIC >300 (VIM strains; 0 mmol/l of EDTA): 1 | No. of VIM strains with MIC ≦50 (VIM strains; 0 mmol/l of EDTA): 9 | No. of VIM strains with MIC 150 (VIM strains; 1.77 mmol/l of active EDTA): 0 | No. of VIM strains with MIC 200 (VIM strains; 1.77 mmol/l of active EDTA): 0 | No. of VIM strains with MIC 300 (VIM strains; 1.77 mmol/l of active EDTA): 0 | No. of VIM strains with MIC >300 (VIM strains; 1.77 mmol/l of active EDTA): 0 | No. of VIM strains with MIC ≦50 (VIM strains; 1.77 mmol/l of active EDTA): 17 | No. of VIM strains with MIC 150 (VIM strains; 2.12 mmol/l of active EDTA): 0 | No. of VIM strains with MIC 200 (VIM strains; 2.12 mmol/l of active EDTA): 0 | No. of VIM strains with MIC 300 (VIM strains; 2.12 mmol/l of active EDTA): 0 | No. of VIM strains with MIC >300 (VIM strains; 2.12 mmol/l of active EDTA): 0 | No. of VIM strains with MIC ≦50 (VIM strains; 2.12 mmol/l of active EDTA): 17 | No. of VIM strains with MIC 150 (VIM strains; 2.47 mmol/l of active EDTA): 0 | No. of VIM strains with MIC 200 (VIM strains; 2.47 mmol/l of active EDTA): 0 | No. of VIM strains with MIC 300 (VIM strains; 2.47 mmol/l of active EDTA): 0 | No. of VIM strains with MIC >300 (VIM strains; 2.47 mmol/l of active EDTA): 0 | No. of VIM strains with MIC ≦50 (VIM strains; 2.47 mmol/l of active EDTA): 17 | No. of VIM strains with MIC 150 (VIM strains; 2.83 mmol/l of active EDTA): 0 | No. of VIM strains with MIC 200 (VIM strains; 2.83 mmol/l of active EDTA): 0 | No. of VIM strains with MIC 300 (VIM strains; 2.83 mmol/l of active EDTA): 0 | No. of VIM strains with MIC >300 (VIM strains; 2.83 mmol/l of active EDTA): 0 | No. of VIM strains with MIC ≦50 (VIM strains; 2.83 mmol/l of active EDTA): 17 | No. of NDM-1 strains with MIC 150 (NDM-1 strains; 0 mmol/l of EDTA): 4 | No. of NDM-1 strains with MIC 200 (NDM-1 strains; 0 mmol/l of EDTA): 1 | No. of NDM-1 strains with MIC 300 (NDM-1 strains; 0 mmol/l of EDTA): 0 | No. of NDM-1 strains with MIC >300 (NDM-1 strains; 0 mmol/l of EDTA): 0 | No. of NDM-1 strains with MIC ≦50 (NDM-1 strains; 0 mmol/l of EDTA): 22 | No. of NDM-1 strains with MIC 150 (NDM-1 strains; 1.77 mmol/l of active EDTA): 2 | No. of NDM-1 strains with MIC 200 (NDM-1 strains; 1.77 mmol/l of active EDTA): 0 | No. of NDM-1 strains with MIC 300 (NDM-1 strains; 1.77 mmol/l of active EDTA): 0 | No. of NDM-1 strains with MIC >300 (NDM-1 strains; 1.77 mmol/l of active EDTA): 0 | No. of NDM-1 strains with MIC ≦50 (NDM-1 strains; 1.77 mmol/l of active EDTA): 25 | No. of NDM-1 strains with MIC 150 (NDM-1 strains; 2.12 mmol/l of active EDTA): 1 | No. of NDM-1 strains with MIC 200 (NDM-1 strains; 2.12 mmol/l of active EDTA): 0 | No. of NDM-1 strains with MIC 300 (NDM-1 strains; 2.12 mmol/l of active EDTA): 0 | No. of NDM-1 strains with MIC >300 (NDM-1 strains; 2.12 mmol/l of active EDTA): 0 | No. of NDM-1 strains with MIC ≦50 (NDM-1 strains; 2.12 mmol/l of active EDTA): 26 | No. of NDM-1 strains with MIC 150 (NDM-1 strains; 2.47 mmol/l of active EDTA): 1 | No. of NDM-1 strains with MIC 200 (NDM-1 strains; 2.47 mmol/l of active EDTA): 0 | No. of NDM-1 strains with MIC 300 (NDM-1 strains; 2.47 mmol/l of active EDTA): 0 | No. of NDM-1 strains with MIC >300 (NDM-1 strains; 2.47 mmol/l of active EDTA): 0 | No. of NDM-1 strains with MIC ≦50 (NDM-1 strains; 2.47 mmol/l of active EDTA): 26 | No. of NDM-1 strains with MIC 150 (NDM-1 strains; 2.83 mmol/l of active EDTA): 0 | No. of NDM-1 strains with MIC 200 (NDM-1 strains; 2.83 mmol/l of active EDTA): 0 | No. of NDM-1 strains with MIC 300 (NDM-1 strains; 2.83 mmol/l of active EDTA): 0 | No. of NDM-1 strains with MIC >300 (NDM-1 strains; 2.83 mmol/l of active EDTA): 0 | No. of NDM-1 strains with MIC ≦50 (NDM-1 strains; 2.83 mmol/l of active EDTA): 27 | inhibition of strains by temocillin disk [4]: does not inhibit all KPC, AmpC and MBL strains
